This is an account of results in article PMC5937082, “Prediction of Lipophilicity and Pharmacokinetics of Chloroacetamides by Chemometric Approach” (Iranian Journal of Pharmaceutical Research : IJPR, 2018).

A short description of the series: Lipophilicity by reversed-phase thin-layer chromatography (RPTLC, RP-18W/UV254 plates). The format is physicochemical. Particulars: φ = 0.34 - 0.56 v/v, room temperature. As for the experimental part: During chromatographic examinations commercial plates (RP-18W/UV254 Macherey-Nagel GmBH and Co., Duren, Germany) were used as the stationary phase. Mixtures of LC grade organic modifiers (J. T. Baker, Deventer, the Netherlands) and filtered bi-distilled water were used as the mobile phase.
The tested chloroacetamides were dissolved in ethanol (analytical purity) in concentration 2 mg mL^–1. About 0.2 µL of freshly prepared solution of each compound was spotted on the plates which were then developed by the ascending technique in the unsaturated chambers at room temperature with an aqueous solutions of two organic modifiers: methanol (φ = 0.34 - 0.56, v/v) and acetone (φ = 0.34 - 0.56, v/v). The visualization of the tested compounds on the dried developed plates was performed under a UV light at λ= 254 nm. In both applied modifiers for each composition three chromatograms were developed and then the average Rf values were calculated.
From the experimentally obtained Rf values, for each composition of the mobile phase, RM values were calculated according to the Equation: […]
The relationships between the retention values, RM, of the compound and the volume fraction of the organic modifier in the mobile phase, φ, were given by:
Where intercept, RM^0, represents the chromatographic retention constant, while the slope of the linear plot, m, which is the change in RM is caused by the unit of the organic modifier concentration in the mobile phase and depends on the properties of the solute. Commonly, it is related to the specific hydrophobic surface area of the compound ([39]). Chromatographic parameter m can be applied as alternative measure of lipophilicity, also ([40], [41]).Values of these parameters obtained for chloroacetamides in the used modifiers are given in Table 4.

On to `O=C(CCl)Nc1ccc(I)cc1` [Compound 4I], for which, under “acetone-water mobile phase”, the “R M ^0 (chromatographic retention constant, intercept)” value is given as 1.963 (±0.143) and the “m (slope of RM vs φ)” value is recorded as -3.375 (±0.323). Besides, where the note is “methanol-water mobile phase”, the “R M ^0 (chromatographic retention constant, intercept)” value is on record as 2.124 (±0.122) and the “m (slope of RM vs φ)” value is listed as -3.282 (±0.266).

As for `Cc1ccc(NC(=O)CCl)cc1` [Compound 4CH3], where the note is “acetone-water mobile phase”, the “R M ^0 (chromatographic retention constant, intercept)” value is on record as 1.370 (±0.097) and the “m (slope of RM vs φ)” value is listed as -2.583 (±0.220). Where the note is “methanol-water mobile phase”, the “R M ^0 (chromatographic retention constant, intercept)” value is reported as 1.542 (±0.067) and the “m (slope of RM vs φ)” value was -2.673 (±0.146).

With `O=C(CCl)Nc1ccccc1` [H], for the setting “acetone-water mobile phase”, the “R M ^0 (chromatographic retention constant, intercept)” value was 1.106 (±0.132) and the “m (slope of RM vs φ)” value is given as -2.225 (±0.285). In addition, for the setting “methanol-water mobile phase”, the “R M ^0 (chromatographic retention constant, intercept)” value is 1.171 (±0.123) and the “m (slope of RM vs φ)” value is given as -2.309 (±0.268).

Turning to `O=C(CCl)Nc1ccc(Cl)cc1` [Compound 4Cl], where the note is “acetone-water mobile phase”, the “R M ^0 (chromatographic retention constant, intercept)” value was 1.636 (±0.139) and the “m (slope of RM vs φ)” value is -2.945 (±0.313). In addition, where the note is “methanol-water mobile phase”, the “R M ^0 (chromatographic retention constant, intercept)” value is listed as 1.788 (±0.140) and the “m (slope of RM vs φ)” value is reported as -2.944 (±0.306).

Regarding `O=C(CCl)Nc1ccc(O)cc1` [Compound 4OH], where the note is “acetone-water mobile phase”, the “R M ^0 (chromatographic retention constant, intercept)” value is recorded as 0.763 (±0.030) and the “m (slope of RM vs φ)” value is recorded as -1.865 (±0.068). Under “methanol-water mobile phase”, the “R M ^0 (chromatographic retention constant, intercept)” value was 1.577 (±0.069) and the “m (slope of RM vs φ)” value was -3.032 (±0.154).

Take `O=C(CCl)Nc1ccc(F)cc1` [Compound 4F]: for the setting “acetone-water mobile phase”, the “R M ^0 (chromatographic retention constant, intercept)” value is recorded as 1.341 (±0.042) and the “m (slope of RM vs φ)” value is -2.440 (±0.095). Besides, for the setting “methanol-water mobile phase”, the “R M ^0 (chromatographic retention constant, intercept)” value is reported as 1.354 (±0.088) and the “m (slope of RM vs φ)” value is recorded as -2.486 (±0.192).

As for `O=C(CCl)Nc1cccc(Br)c1` [Compound 3Br], the “R M ^0 (chromatographic retention constant, intercept)” value (acetone-water mobile phase) is 1.780 (±0.105) and the “R M ^0 (chromatographic retention constant, intercept)” value (methanol-water mobile phase) is listed as 1.958 (±0.115). For the same molecule, the “m (slope of RM vs φ)” value runs as follows: (acetone-water mobile phase) -3.105 (±0.238); (methanol-water mobile phase) -3.151 (±0.251).

`N#Cc1ccc(NC(=O)CCl)cc1` [Compound 4CN]: the “R M ^0 (chromatographic retention constant, intercept)” value is reported as 1.074 (±0.117) (acetone-water mobile phase) and 1.382 (±0.039) (methanol-water mobile phase). Moreover, the “m (slope of RM vs φ)” value by setting is: (acetone-water mobile phase) -2.033 (±0.263); (methanol-water mobile phase) -2.749 (±0.086).

Consider `O=C(CCl)Nc1ccc(Br)cc1` [Compound 4Br], for which the “R M ^0 (chromatographic retention constant, intercept)” value is recorded as 1.849 (±0.087) (acetone-water mobile phase) and 1.951 (±0.100) (methanol-water mobile phase). For the same molecule, the “m (slope of RM vs φ)” value is, setting by setting: (acetone-water mobile phase) -3.175 (±0.195); (methanol-water mobile phase) -3.137 (±0.218).

As to `CC(=O)c1ccc(NC(=O)CCl)cc1` [Compound 4COCH3], for the setting “acetone-water mobile phase”, the “R M ^0 (chromatographic retention constant, intercept)” value was 1.118 (±0.077) and the “m (slope of RM vs φ)” value is listed as -2.396 (±0.173). Moreover, for the setting “methanol-water mobile phase”, the “R M ^0 (chromatographic retention constant, intercept)” value is listed as 1.275 (±0.121) and the “m (slope of RM vs φ)” value is reported as -2.549 (±0.263).

In the case of `N#Cc1cccc(NC(=O)CCl)c1` [Compound 3CN], the “R M ^0 (chromatographic retention constant, intercept)” value is listed as 1.186 (±0.101) (acetone-water mobile phase) and 1.362 (±0.082) (methanol-water mobile phase). Besides, the “m (slope of RM vs φ)” value by setting is: (acetone-water mobile phase) -2.278 (±0.218); (methanol-water mobile phase) -2.726 (±0.182).

With `COc1ccc(NC(=O)CCl)cc1` [Compound 4OCH3], where the note is “acetone-water mobile phase”, the “R M ^0 (chromatographic retention constant, intercept)” value was 1.130 (±0.115) and the “m (slope of RM vs φ)” value is listed as -2.431 (±0.258). Also, under “methanol-water mobile phase”, the “R M ^0 (chromatographic retention constant, intercept)” value is recorded as 1.247 (±0.122) and the “m (slope of RM vs φ)” value is recorded as -2.478 (±0.265).
